Assays:
[1] = test system: Glutathione S-transferase (GST); assay: Enhancing effect on glutathione S-transferase (GST) activity in Hepa1c1c7 cells; type: cell-based; details: for GST activity (−fold): relative to water control
Description: Hepa1c1c7 cells (ATCC CRL-2026) were suspended in a Dulbecco-modified Eagle medium (manufactured by Sigma) containing 10% of fetal bovine serum (manufactured by MP Biomedicals Co.) and 1% of penicillin-streptomycin (manufactured by Nacalai Tesque, Inc.) at 4×10^5 cells/ml. To each well of a 96 well-microtiter plate, 0.2 ml of the cell suspension was added, and cultured at 37° C. overnight in the presence of 5% carbon dioxide gas. Then, the medium in the wells was replaced with a Dulbecco-modified Eagle medium. To each well, 0.4 μl of a solution of a test substance in water was added and then cultured for 24 hours. The agarobiose obtained in Preparation Example 1 and a commercially available agaro-oligosaccharide (trade name: Agaoligo, manufactured by Takara Bio Inc., containing agarobiose, agarotetraose, agarohexaose and agarooctaose in 20 to 25% each) were used as test substances. For a negative control, water was added in place of a test substance. After completion of the culture, the medium was removed and the cells were washed with a phosphate buffer. Then, 0.1 ml of a cell-lysis solution (10 mM Tris-HCl (pH 7.4), 38.5 mM KCl, and 1 mM EDTA, 1% NP-40) was added and incubated at 37° C. for 10 minutes to obtain an enzyme solution. To 25 μl of the enzyme solution, 155 μl of a reaction solution (0.13 M potassium phosphate buffer solution (pH 6.5), 1.3 mM glutathione) was added. Immediately before measurement, 20 al of 10 mM of CDNB (2,4-dinitrochlorobenzene, manufactured by TOKYO CHEMICAL INDUSTRY CO., LTD.) as a reaction substrate was added, and a change in an absorbance at 340 nm was measured. This activity assay was performed in triplicate. The protein content was measured by using a 50-fold dilution of the enzyme solution with a phosphate buffer and MicroBCA protein assay kit (manufactured by PIERCE Co.). The GST activity was expressed as a GST activity relative to the control and calculated by the following formula.
GST activity=(Maximum rate coefficient in test substance-added section/Protein content in test substance-added section)/(Maximum rate coefficient in water-added section/Protein content in water-added section)
An effect on a GST activity caused by using DGE obtained in Preparation Example 2 was determined in accordance with Example 1. Each measurement was repeated three times. The GST activity was expressed as a GST activity relative to the control and calculated by the same formula as in Example 1.

[2] = test system: Quinone Reductase (QR); assay: Quinone reductase (QR) activity in Hepa1c1c7 cells; type: cell-based; details: for QR activity (fold vs water control): Table 3 (QR activity test), 24 hours; for QR activity (fold vs water control) / QR activity (−fold): relative to water control
Description: A QR activity was measured by a partially modified method from a method described in Hans J. Prochaska et al., Analytical Biochemistry 169, 328-336 (1988). Hepa1c1c7 cells were suspended in a Dulbecco-modified Eagle medium containing 10% of fetal bovine serum and 1% of penicillin-streptomycin at 4×10^5 cells/ml. To each well of a 96 well-microtiter plate, 0.2 ml of the cell suspension was added, and cultured at 37° C. overnight in the presence of 5% carbon dioxide gas. Then, the medium in the wells was replaced with a Dulbecco-modified Eagle medium. To each well, 0.4 μl of a solution of a test substance in water was added and then cultured for 24 hours. The agarobiose obtained in Preparation Example 1 and a commercially available agaro-oligosaccharide (trade name: Agaoligo) were used as test substances. For a negative control, water was added in place of a test substance. After completion of the culture, the medium was removed and the cells were washed with a phosphate buffer. Then, 0.1 ml of a cell-lysis solution (2 mM EDTA (pH 7.8), 1% NP-40) was added and incubated at 37° C. for 10 minutes to obtain an enzyme solution. To 25 it of the enzyme solution, 100 it of a reaction solution (25 mM Tris-HCl (pH 7.4), 0.67% BSA, 0.01% Tween 20, 5 μM FAD, 1 mM G6P, 30 μM NADP, 0.3 mg/ml MTT, 2 U/ml G6PDH (manufactured by Sigma)) was added. At this time, a substrate was added or not added. In the case where a substrate was added, menadion (manufactured by Sigma) was further added at a final concentration of 50 μM into the reaction solution. After incubation at room temperature for 30 minutes, 75 μl of 2N Na2CO3 was added to terminate the reaction, and an absorbanc at 590 nm was measured. This activity assay was performed in triplicate. The protein content was measured by using a 50-fold dilution of the enzyme solution with a phosphate buffer and MicroBCA protein assay kit. The QR activity was expressed as a QR activity relative to the control and calculated by the following formula.
QR activity={[(Absorbance in test substance-added section in the presence of substrate)−(Absorbance in test substance-added section in the absence of substrate)]/(Protein content in test substance-added section)}/{[(Absorbance in water-added section in the presence of substrate)−(Absorbance in water-added section in the absence of substrate)]/(Protein content in water-added section)}

[3] = test system: Intracellular Glutathione (GSH); assay: Enhancing effect on intracellular glutathione (GSH) content in Hepa1c1c7 cells; type: cell-based; details: for GSH content (−fold): 24 hours, relative to water control
Description: […] was measured by a partially modified method from a method described in Clarissa Gerhauser et al., Cancer Research 57, 272-278 (1997). Hepa1c1c7 cells were suspended in a Dulbecco-modified Eagle medium containing 10% of fetal bovine serum and 1% of penicillin-streptomycin at 4×10^5 cells/ml. To each well of a 96 well-microtiter plate, 0.2 ml of the cell suspension was added, and cultured at 37° C. overnight in the presence of 5% carbon dioxide gas. Then, the medium in the wells was replaced with a Dulbecco-modified Eagle medium. To each well, 0.4 μl of a solution of a test substance in water was added and then cultured for 24 hours. The agarobiose obtained in Preparation Example 1 and a commercially available agaro-oligosaccharide (trade name: Agaoligo) were used as test substances. For a negative control, water was added in place of a test substance. After completion of the culture, the medium was removed and the cells were washed with a phosphate buffer. The solution was removed, and freeze-thaw of the cells was repeated three times. Thereto was added 0.1 ml of buffer A ([…] sodium phosphate buffer (pH 7.5), 6.3 mM EDTA) to obtain a cell lysate. To 25 it of the cell lysate, 100 al of a reaction solution (25 mM Tris-HCl (pH 7.4), 1 mM G6P, 30 μM NADP, 2 U/ml G6PDH, 0.25 U/ml glutathione reductase (manufactured by Sigma), 0.6 mM DTNB) was added. After incubation at room temperature for 5 minutes, an absorbance at 405 nm was measured. This activity assay was performed in triplicate. At the same time, as a standard, serial 2-fold dilutions of 2 to 200 al of […] were used in place of the cell lysate. The protein content was measured by using a 50-fold dilution of the cell lysate with a phosphate buffer and MicroBCA protein assay kit. The GSH content was expressed as a GSH content relative to the control and calculated by the following formula.
GSH content=[(GSH content in test substance-added section)/(Protein content in test substance-added section)]/[(GSH content in water-added section)/(Protein content in water-added section)]

[4] = test system: mouse; assay: Single oral dose toxicity in mouse; type: in vivo; details: oral, 2,000 mg/kg body weight as a single dose
Description: For example, in the case of oral administration, there is no fatal case when agarobiose, agarotetraose, agarohexaose, agarooctaose, a mixture thereof, or DGE is administered to a mouse in an amount of 2,000 mg/kg body weight as a single dose. Further, there is no fatal case when the above-described active ingredient is administered orally as a single dose of 2,000 mg/kg body weight to a rat.

[5] = test system: HL-60 cell; assay: Cancer cell growth suppressing activity using HL-60 cell; type: cell-based; details: HPLC fraction at retention time 4.05 to 4.16 minutes, found to be DGE
Description: The neutralized product was subjected to the following normal phase HPLC. Each peak was collected, dried under reduced pressure and then dissolved in water. A cancer cell growth suppressing activity of each fraction was measured using a HL-60 cell.

[6] = 24 hours, final concentration 100 μM
[7] = 24 hours, final concentration 200 μM

Molecule: OC[C@H]1O[C@@H](O[C@H]2[C@H]3OC[C@@H]2OC(O)[C@H]3O)[C@H](O)[C@@H](O)[C@H]1O (mixture of isomers) [Agarobiose, agarobiose]
- Effect on GST activity (in words) [1]: significant increase
- GST activity (−fold) ([1]; 24 hours, final concentration 25 μM): 1.4 fold
- GST activity (−fold) ([1]; 24 hours, final concentration 50 μM): 1.5 fold
- GST activity (−fold) [1, 6]: 1.9 fold
- GST activity (−fold) [1, 7]: 1.9 fold
- Effect on QR activity (in words) [2]: significant increase
- QR activity (fold vs water control) ([2]; final concentration 25 μM): 1.4
- QR activity (fold vs water control) ([2]; final concentration 50 μM): 1.4
- QR activity (fold vs water control) ([2]; final concentration 100 μM): 1.8
- QR activity (fold vs water control) ([2]; final concentration 200 μM): 2.2
- Effect on GSH content (in words) [3]: significant increase
- GSH content (−fold) ([3]; final concentration 100 μM): 1.3 fold
- GSH content (−fold) ([3]; final concentration 200 μM): 1.9 fold
- Fatal cases after oral administration [4]: no fatal case

Molecule: OC[C@H]1O[C@@H](O[C@H]2[C@H]3OC[C@@H]2O[C@@H](O[C@H]2[C@@H](O)[C@@H](CO)O[C@@H](O[C@H]4[C@H]5OC[C@@H]4O[C@@H](O[C@H]4[C@@H](O)[C@@H](CO)O[C@@H](O[C@H]6[C@H]7OC[C@@H]6OC(O)[C@H]7O)[C@@H]4O)[C@H]5O)[C@@H]2O)[C@H]3O)[C@H](O)[C@@H](O)[C@H]1O (mixture of isomers) [agarohexaose]
- Fatal cases after oral administration [4]: no fatal case

Molecule: O=C1C=CC(CO)OC1O [DGE, L-glycero-1,5-epoxy-1αβ,6-dihydroxy-cis-hexa-3-en-2-one]
- Effect on GST activity (in words) [1]: significant increase
- GST activity (−fold) ([1]; final concentration 5 μM): 1.4 fold
- GST activity (−fold) ([1]; final concentration 10 μM): 1.4 fold
- GST activity (−fold) ([1]; final concentration 20 μM): 1.6 fold
- Fatal cases after oral administration [4]: no fatal case
- Cancer cell growth suppressing activity [5]: had a cancer cell growth suppressing activity

Molecule: OC[C@H]1O[C@@H](O)[C@H](O)[C@@H](O[C@@H]2O[C@H]3CO[C@@H]([C@@H]2O)[C@@H]3O[C@@H]2O[C@H](CO)[C@H](O)[C@H](O[C@@H]3O[C@H]4CO[C@@H]([C@@H]3O)[C@@H]4O[C@@H]3O[C@H](CO)[C@H](O)[C@H](O[C@@H]4O[C@H]5CO[C@@H]([C@@H]4O)[C@@H]5O)[C@H]3O)[C@H]2O)[C@H]1O [Neoogarohexaose, neoagarohexaose, reference compound]
- Effect on GST activity (in words) [1]: did not result in a significant increase
- GST activity (−fold) [1, 6]: 1.1 fold
- GST activity (−fold) [1, 7]: 1.1 fold
- Effect on QR activity (in words) [2]: did not result in a significant increase
- QR activity (−fold) ([2]; final concentration 100 μM): 1.0 fold
- QR activity (−fold) ([2]; final concentration 200 μM): 1.1 fold

Molecule: OC[C@H]1O[C@@H](O[C@H]2[C@H]3OC[C@@H]2O[C@@H](O[C@H]2[C@@H](O)[C@@H](CO)O[C@@H](O[C@H]4[C@H]5OC[C@@H]4OC(O)[C@H]5O)[C@@H]2O)[C@H]3O)[C@H](O)[C@@H](O)[C@H]1O (some centres unmarked) [agarotetraose]
- Fatal cases after oral administration [4]: no fatal case

Molecule: agarooctaose
- Fatal cases after oral administration [4]: no fatal case
